# According to PubChem BioAssay AID1963831 (Molecular Pharmacology Branch, DTP, NCI, 2024):
# System: 889142-216-R-J1-PDC complex spheroid viability
# Assay: Anticancer human tumor 889142-216-R-J1-PDC patient-derived bladder carcinoma cell line growth inhibition [POLQ]
# Details: for IC50: curve of first compound; for viability, T/C: stronger effect = lower value
# Summary of the method: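 Three-cell-type spheroids modelling solid tumor plus stroma served as the readout system; POL inhibitors were tested individually and in combination, concentration ranges set by clinical Cmax where known.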
# [1] = second compound 0.0316 µM, first compound 0.0316 µM
# [2] = second compound 0.0316 µM, first compound 0.1 µM
# [3] = second compound 0.0316 µM, first compound 0.316 µM
# [4] = second compound 0.0316 µM, first compound 1 µM
# [5] = second compound 0.1 µM, first compound 0.0316 µM
# [6] = second compound 0.1 µM, first compound 0.1 µM
# [7] = second compound 0.1 µM, first compound 0.316 µM
# [8] = second compound 0.1 µM, first compound 1 µM
# [9] = second compound 0.316 µM, first compound 0.0316 µM
# [10] = second compound 0.316 µM, first compound 0.1 µM
# [11] = second compound 0.316 µM, first compound 0.316 µM
# [12] = second compound 0.316 µM, first compound 1 µM
# [13] = second compound 1 µM, first compound 0.0316 µM
# [14] = second compound 1 µM, first compound 0.1 µM
# [15] = second compound 1 µM, first compound 0.316 µM
# [16] = second compound 1 µM, first compound 1 µM
# [17] = second compound 3.16 µM, first compound 0.0316 µM
# [18] = second compound 3.16 µM, first compound 0.1 µM
# [19] = second compound 3.16 µM, first compound 0.316 µM
# [20] = second compound 3.16 µM, first compound 1 µM
# [21] = second compound 10 µM, first compound 0.0316 µM
# [22] = second compound 10 µM, first compound 0.1 µM
# [23] = second compound 10 µM, first compound 0.316 µM
# [24] = second compound 10 µM, first compound 1 µM
# [25] = second compound 0.0316 µM, first compound 3.16 µM
# [26] = second compound 0.0316 µM, first compound 10 µM
# [27] = second compound 0.1 µM, first compound 3.16 µM
# [28] = second compound 0.1 µM, first compound 10 µM
# [29] = second compound 0.316 µM, first compound 3.16 µM
# [30] = second compound 0.316 µM, first compound 10 µM
# [31] = second compound 1 µM, first compound 3.16 µM
# [32] = second compound 1 µM, first compound 10 µM
# [33] = second compound 3.16 µM, first compound 3.16 µM
# [34] = second compound 3.16 µM, first compound 10 µM
# [35] = second compound 10 µM, first compound 3.16 µM
# [36] = second compound 10 µM, first compound 10 µM
# 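Note: spheroids exposed to compounds for seven days.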
# 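Throughout, for viability, T/C: 100% = DMSO vehicle control viability.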
compound,measurement,setting,value
COc1cccc(OCCCN)c1-c1cc(Nc2cnc(C#N)cn2)n[nH]1 + Cc1cccc(N(C)C(=O)C2C(O)CCN2c2nc(C)cc(C(F)(F)F)c2C#N)c1,IC50,second compound 0.0316 µM,0.0939 µM
same,IC50,second compound 0.1 µM,0.083 µM
same,IC50,second compound 0.316 µM,0.0292 µM
same,IC50,second compound 1 µM,0.0356 µM
same,IC50,second compound 3.16 µM,0.143 µM
same,IC50,second compound 10 µM,0.0274 µM
same,"viability, T/C","second compound 0.0316 µM, first compound 0.00316 µM",94.4%
same,"viability, T/C","second compound 0.0316 µM, first compound 0.01 µM",65.8%
same,"viability, T/C",[1],53.7%
same,"viability, T/C",[2],52.1%
same,"viability, T/C",[3],49%
same,"viability, T/C",[4],45%
same,"viability, T/C","second compound 0.1 µM, first compound 0.00316 µM",93.2%
same,"viability, T/C","second compound 0.1 µM, first compound 0.01 µM",95.6%
same,"viability, T/C",[5],59.3%
same,"viability, T/C",[6],52.3%
same,"viability, T/C",[7],49.4%
same,"viability, T/C",[8],42.9%
same,"viability, T/C","second compound 0.316 µM, first compound 0.00316 µM",118%
same,"viability, T/C","second compound 0.316 µM, first compound 0.01 µM",62.3%
same,"viability, T/C",[9],48.2%
same,"viability, T/C",[10],50.6%
same,"viability, T/C",[11],50.5%
same,"viability, T/C",[12],39.7%
same,"viability, T/C","second compound 1 µM, first compound 0.00316 µM",110%
same,"viability, T/C","second compound 1 µM, first compound 0.01 µM",62%
same,"viability, T/C",[13],50.7%
same,"viability, T/C",[14],51.7%
same,"viability, T/C",[15],56.8%
same,"viability, T/C",[16],38.2%
same,"viability, T/C","second compound 3.16 µM, first compound 0.00316 µM",81%
same,"viability, T/C","second compound 3.16 µM, first compound 0.01 µM",73.6%
same,"viability, T/C",[17],63.8%
same,"viability, T/C",[18],46.2%
same,"viability, T/C",[19],49.8%
same,"viability, T/C",[20],51.8%
same,"viability, T/C","second compound 10 µM, first compound 0.00316 µM",74.8%
same,"viability, T/C","second compound 10 µM, first compound 0.01 µM",73.5%
same,"viability, T/C",[21],46.6%
same,"viability, T/C",[22],48.8%
same,"viability, T/C",[23],42.7%
same,"viability, T/C",[24],43.9%
CNCc1ccc(-c2[nH]c3cc(F)cc4c3c2CCNC4=O)cc1 + Cc1cccc(N(C)C(=O)C2C(O)CCN2c2nc(C)cc(C(F)(F)F)c2C#N)c1,IC50,second compound 0.0316 µM,> 10 µM
same,IC50,second compound 0.1 µM,> 10 µM
same,IC50,second compound 0.316 µM,> 10 µM
same,IC50,second compound 1 µM,> 10 µM
same,IC50,second compound 3.16 µM,> 10 µM
same,IC50,second compound 10 µM,> 10 µM
same,"viability, T/C",[1],110%
same,"viability, T/C",[2],106%
same,"viability, T/C",[3],83.5%
same,"viability, T/C",[4],92.7%
same,"viability, T/C",[25],101%
same,"viability, T/C",[26],58.3%
same,"viability, T/C",[5],91.9%
same,"viability, T/C",[6],87%
same,"viability, T/C",[7],95.9%
same,"viability, T/C",[8],91.7%
same,"viability, T/C",[27],85.4%
same,"viability, T/C",[28],78.5%
same,"viability, T/C",[9],92.8%
same,"viability, T/C",[10],89.4%
same,"viability, T/C",[11],109%
same,"viability, T/C",[12],110%
same,"viability, T/C",[29],126%
same,"viability, T/C",[30],79.9%
same,"viability, T/C",[13],82.3%
same,"viability, T/C",[14],120%
same,"viability, T/C",[15],104%
same,"viability, T/C",[16],119%
same,"viability, T/C",[31],113%
same,"viability, T/C",[32],70.7%
same,"viability, T/C",[17],102%
same,"viability, T/C",[18],99%
same,"viability, T/C",[19],110%
same,"viability, T/C",[20],89.2%
same,"viability, T/C",[33],96.6%
same,"viability, T/C",[34],63.9%
same,"viability, T/C",[21],73.7%
same,"viability, T/C",[22],81.2%
same,"viability, T/C",[23],88.4%
same,"viability, T/C",[24],94.4%
same,"viability, T/C",[35],78.5%
same,"viability, T/C",[36],57.2%
O=C(c1cc(Cc2n[nH]c(=O)c3ccccc23)ccc1F)N1CCN(C(=O)C2CC2)CC1 + Nc1ccc(C#CCN(C(=O)Cc2ncc(C(F)(F)F)cc2C(F)(F)F)c2ccc(F)cc2)nn1,IC50,second compound 0.0316 µM,> 10 µM
same,IC50,second compound 0.1 µM,> 10 µM
same,IC50,second compound 0.316 µM,> 10 µM
same,IC50,second compound 1 µM,> 10 µM
same,IC50,second compound 3.16 µM,> 10 µM
same,IC50,second compound 10 µM,> 10 µM
same,"viability, T/C",[1],94%
same,"viability, T/C",[2],93%
same,"viability, T/C",[3],66.3%
same,"viability, T/C",[4],118%
same,"viability, T/C",[25],80.1%
same,"viability, T/C",[26],73.5%
same,"viability, T/C",[5],95.3%
same,"viability, T/C",[6],112%
same,"viability, T/C",[7],83.7%
same,"viability, T/C",[8],97.5%
same,"viability, T/C",[27],79.5%
same,"viability, T/C",[28],66.6%
same,"viability, T/C",[9],110%
same,"viability, T/C",[10],115%
same,"viability, T/C",[11],85.2%
same,"viability, T/C",[12],104%
same,"viability, T/C",[29],97.5%
same,"viability, T/C",[30],59.7%
same,"viability, T/C",[13],152%
same,"viability, T/C",[14],113%
same,"viability, T/C",[15],94.8%
same,"viability, T/C",[16],102%
same,"viability, T/C",[31],85.2%
same,"viability, T/C",[32],67.6%
same,"viability, T/C",[17],104%
same,"viability, T/C",[18],92.4%
same,"viability, T/C",[19],90.1%
same,"viability, T/C",[20],98.2%
same,"viability, T/C",[33],95.1%
same,"viability, T/C",[34],62.8%
same,"viability, T/C",[21],111%
same,"viability, T/C",[22],110%
same,"viability, T/C",[23],97.5%
same,"viability, T/C",[24],90.9%
same,"viability, T/C",[35],76.3%
same,"viability, T/C",[36],86.2%
